Reference: US20260053932A1, “COMPOUNDS AND METHODS FOR THE TARGETED DEGRADATION OF ANDROGEN RECEPTOR AND ASSOCIATED METHODS OF USE” (Arvinas Operations, Inc., priority 2020, published 2026)

system: androgen receptor (AR) in LNCaP and/or VCaP cells; assay: Androgen Receptor ELISA assay (AR degradation); assay type: cell-based; settings: LNCaP and/or VCaP cells; 5 hours incubation; media with R1881; read-out: DC50 Code* (degradation of AR ELISA)
How it was run: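 VCaP cells grown ≥3 days, then treated 5 h with compound in media containing 1 nM R1881 (10× stock). Cells lysed and AR quantified by sandwich ELISA (mouse AR detection Ab, HRP anti-mouse, TMB). DC50 and Dmax derived from AR degradation.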

Row | DC50 | SMILES
1 | < 1 nM | N#Cc1ccc(O[C@H]2CC[C@H](NC(=O)c3cnc(N4CCC(CN(C5CCOC5)[C@H]5C[C@H](Oc6ccc7c(c6)C(=O)N(C6CCC(=O)NC6=O)C7=O)C5)CC4)cn3)CC2)cc1Cl (stereo partly drawn) [Compound 62, N-((1r,4r)-4-(3-chloro-4-cyanophenoxy)cyclohexyl)-5-(4-((((1r,3r)-3-((2-(2,6-dioxopiperidin-3-yl)-1,3-dioxoisoindolin-5-yl)oxy)cyclobutyl) (tetrahydrofuran-3-yl)amino)methyl)piperidin-1-yl)pyrazine-2-carboxamide]
2 | < 1 nM | N#Cc1ccc(O[C@H]2CC[C@H](NC(=O)c3cnc(N4CCC(CN(C5CCOCC5)[C@H]5C[C@H](Oc6ccc7c(c6)C(=O)N(C6CCC(=O)NC6=O)C7=O)C5)CC4)cn3)CC2)cc1Cl (stereo partly drawn) [Compound 30, N-((1r,4r)-4-(3-chloro-4-cyanophenoxy)cyclohexyl)-5-(4-((((1r,3r)-3-((2-(2,6-dioxopiperidin-3-yl)-1,3-dioxoisoindolin-5-yl)oxy)cyclobutyl) (tetrahydro-2H-pyran-4-yl)amino)methyl)piperidin-1-yl)pyrazine-2-carboxamide]
3 | < 1 nM | COc1cc(O[C@H]2C[C@H](N(CC3CCN(c4cnc(C(=O)N[C@H]5CC[C@H](Oc6ccc(C#N)c(C)c6)CC5)cn4)CC3)C(C)C)C2)cc2c1C(=O)N(C1CCC(=O)NC1=O)C2=O (stereo partly drawn) [Compound 78, N-((1r,4r)-4-(4-cyano-3-methylphenoxy)cyclohexyl)-5-(4-((((1r,3r)-3-((2-(2,6-dioxopiperidin-3-yl)-7-methoxy-1,3-dioxoisoindolin-5-yl)oxy)cyclobutyl) (isopropyl)amino)methyl)piperidin-1-yl)pyrazine-2-carboxamide]
4 | < 1 nM | COc1cc(O[C@H]2CC[C@H](NC(=O)c3cnc(N4CCC(CN(C(C)C)[C@H]5CC[C@H](Oc6ccc7c(c6)C(=O)N(C6CCC(=O)NC6=O)C7=O)CC5)CC4)cn3)CC2)ccc1C#N (stereo partly drawn) [Compound 31, N-((1r,4r)-4-(4-cyano-3-methoxyphenoxy)cyclohexyl)-5-(4-((((1r,4r)-4-((2-(2,6-dioxopiperidin-3-yl)-1,3-dioxoisoindolin-5-yl)oxy)cyclohexyl) (isopropyl)amino)methyl)piperidin-1-yl)pyrazine-2-carboxamide]
5 | < 1 nM | COCCN(CC1CCN(c2cnc(C(=O)N[C@H]3CC[C@H](Oc4ccc(C#N)c(OC)c4)CC3)cn2)CC1)[C@H]1C[C@H](Oc2ccc3c(c2)C(=O)N(C2CCC(=O)NC2=O)C3=O)C1 (stereo partly drawn) [Compound 68, N-((1r,4r)-4-(4-cyano-3-methoxyphenoxy)cyclohexyl)-5-(4-((((1r,3r)-3-((2-(2,6-dioxopiperidin-3-yl)-1,3-dioxoisoindolin-5-yl)oxy)cyclobutyl)(2-methoxyethyl)amino)methyl)piperidin-1-yl)pyrazine-2-carboxamide]

same assay, conditions: degradation of AR ELISA in LNCaP and/or VCaP cells; Table 2C; read-out: DC50 Code*

Row | DC50 | SMILES
6 | < 1 nM | COCCOCCOCCN(CC1CCN(c2ncc(C(=O)N[C@H]3C(C)(C)[C@H](Oc4cc(C)c(C#N)c(C)c4)C3(C)C)cn2)CC1)[C@H]1C[C@H](Oc2ccc3c(c2)C(=O)N(C2CCC(=O)NC2=O)C3=O)C1 (stereo partly drawn) [compound 144, N-((1r,3r)-3-(4-cyano-3,5-dimethylphenoxy)-2,2,4,4-tetramethylcyclobutyl)-2-(4-(2-((1r,3r)-3-((2-(2,6-dioxopiperidin-3-yl)-1,3-dioxoisoindolin-5-yl)oxy)cyclobutyl)-5,8,11-trioxa-2-azadodecyl)piperidin-1-yl)pyrimidine-5-carboxamide]
7 | < 1 nM | COc1c(O[C@H]2C[C@H](N(CC3CCN(c4cnc(C(=O)N[C@H]5C(C)(C)[C@H](Oc6ccc(C#N)c(Cl)c6)C5(C)C)cn4)CC3)C(C)C)C2)ccc2c1CN(C1CCC(=O)NC1=O)C2=O (stereo partly drawn) [Compound 227, N-((1r,3r)-3-(3-chloro-4-cyanophenoxy)-2,2,4,4-tetramethylcyclobutyl)-5-(4-((((1r,3r)-3-((2-(2,6-dioxopiperidin-3-yl)-4-methoxy-1-oxoisoindolin-5-yl)oxy)cyclobutyl)(isopropyl)amino)methyl)piperidin-1-yl)pyrazine-2-carboxamide]
8 | < 1 nM | CC(C)N(C[C@H]1C2CN(c3ncc(C(=O)N[C@H]4C(C)(C)[C@H](Oc5ccc(C#N)c(Cl)c5)C4(C)C)cn3)C[C@H]21)[C@H]1C[C@H](Oc2ccc3c(c2)C(=O)N(C2CCC(=O)NC2=O)C3=O)C1 (stereo partly drawn) [compound 92, N-((1r,3S)-3-(3-chloro-4-cyanophenoxy)-2,2,4,4-tetramethylcyclobutyl)-2-((1S,5S)-6-((((1r,3S)-3-((2-(2,6-dioxopiperidin-3-yl)-1,3-dioxoisoindolin-5-yl)oxy)cyclobutyl) (isopropyl)amino)methyl)-3-azabicyclo[3.1.0]hexan-3-yl)pyrimidine-5-carboxamide]
9 | < 1 nM | Cc1cc(O[C@H]2C(C)(C)[C@H](NC(=O)c3ccc(N4CCC(CN5CCOC[C@@H]5CCOc5ccc6c(c5)C(=O)N(C5CCC(=O)NC5=O)C6=O)CC4)cc3)C2(C)C)cc(C)c1C#N (stereo partly drawn) [compound 174, N-((1r,3S)-3-(4-cyano-3,5-dimethylphenoxy)-2,2,4,4-tetramethylcyclobutyl)-4-(4-(((3S)-3-(2-((2-(2,6-dioxopiperidin-3-yl)-1,3-dioxoisoindolin-5-yl)oxy)ethyl)morpholino)methyl)piperidin-1-yl)benzamide]
10 | < 1 nM | COc1cc(O[C@H]2C[C@H](N(CCN3CCOCC3)CC3CCN(c4cnc(C(=O)N[C@H]5C(C)(C)[C@H](Oc6cc(C)c(C#N)c(C)c6)C5(C)C)cn4)CC3)C2)cc2c1C(=O)N(C1CCC(=O)NC1=O)C2=O (stereo partly drawn) [compound 210, N-((1r,3r)-3-(4-cyano-3,5-dimethylphenoxy)-2,2,4,4-tetramethylcyclobutyl)-5-(4-((((1r,3r)-3-((2-(2,6-dioxopiperidin-3-yl)-7-methoxy-1,3-dioxoisoindolin-5-yl)oxy)cyclobutyl)(2-morpholinoethyl)amino)methyl)piperidin-1-yl)pyrazine-2-carboxamide]
11 | < 1 nM | COc1cc(O[C@H]2C(C)(C)[C@H](NC(=O)c3cnc(N4CCC(CN5CC(Oc6ccc7c(c6)C(=O)N(C6CCC(=O)NC6=O)C7=O)C5)CC4)cn3)C2(C)C)ccc1C#N (stereo partly drawn) [compound 93, N-((1r,3r)-3-(4-cyano-3-methoxyphenoxy)-2,2,4,4-tetramethylcyclobutyl)-5-(4-((3-((2-(2,6-dioxopiperidin-3-yl)-1,3-dioxoisoindolin-5-yl)oxy)azetidin-1-yl)methyl)piperidin-1-yl)pyrazine-2-carboxamide]
12 | < 1 nM | COCCN(CC1CCN(c2ccc(C(=O)N[C@H]3C(C)(C)[C@H](Oc4cc(C)c(C#N)c(C)c4)C3(C)C)cc2)CC1)[C@H]1C[C@H](Oc2cc(OC)c3c(c2)C(=O)N(C2CCC(=O)NC2=O)C3=O)C1 (stereo partly drawn) [compound 106, N-((1r,3r)-3-(4-cyano-3,5-dimethylphenoxy)-2,2,4,4-tetramethylcyclobutyl)-4-(4-((((1r,3r)-3-((2-(2,6-dioxopiperidin-3-yl)-7-methoxy-1,3-dioxoisoindolin-5-yl)oxy)cyclobutyl)(2-methoxyethyl)amino)methyl)piperidin-1-yl)benzamide]
